# Test results from PMC12610274, “Identification of Marrubiin as a Cathepsin C Inhibitor for Treating Rheumatoid Arthritis” (Molecules, 2025).
# What was measured:
# [1] = tested on: NE; assay: Stability (protein level) of NSPs in U937 cells, Western blot, NE; type: cell-based, human; conditions: U937, 10 μM
# Experimental: The Western blot experiments in this study were performed as described below. Cells in the logarithmic growth phase were collected in appropriate numbers according to different experimental purposes. After being thoroughly washed with phosphate-buffered saline and centrifuged, the cell pellets were resuspended in phosphate-buffered saline to obtain single-cell suspensions. Cells were fully lysed using RIPA buffer (Beyotime, P0013B) supplemented with EDTA-free protease and phosphatase inhibitor (Abcam, ab201120). Total cellular protein solutions were obtained after centrifugation to remove cell debris. The isolated proteins were quantified using the BeyoBCA protein assay kit (Beyotime, P0399M) following the operational protocol. The quantified protein samples were thoroughly mixed with protein loading buffer, boiled on a dry bath for 5 min, and then cooled to room temperature for Western blot analysis. […] Finally, enhanced chemiluminescent horseradish peroxidase substrate (Tanon Science & Technology Co., Ltd., Shanghai, China, 180-506) was used to visualize protein bands on a ChemiDoc XRS system (Bio-Rad Laboratories, Inc., Hercules, CA, USA), and the protein bands were quantified using Image Lab analysis software (Version 6.1) (Bio-Rad). […]
# [2] = tested on: LPS-induced NO release by RAW 264.7 macrophages; assay: LPS-induced NO release, Griess reagent; type: cell-based; conditions: Mus musculus, RAW264.7; LPS-stimulated RAW 264.7, 24 h
# Experimental: RAW264.7 cells in the logarithmic growth phase were counted and diluted to a concentration of 6 × 10^4 cells/mL. After thorough mixing, the cell suspension was seeded into 48-well plates and incubated in a humidified atmosphere containing 5% CO2 at 37 °C. Following 24 h of incubation, the culture medium was carefully aspirated, and the cells were gently washed with phosphate-buffered saline. […] After 1 h of pre-incubation, 30 μL of lipopolysaccharide (1 μg/mL) was added to each well except for the blank control group, which remained unstimulated. Following an additional 24 h incubation under identical conditions, the culture supernatants were collected to assess NO production using the Griess reagent assay. Concentrations of pro-inflammatory cytokines and chemokines were determined using commercially available ELISA kits according to the protocols.
# [3] = target: T1, CTSC (Rattus norvegicus, UniProt P80067); assay: AIA model, serum CTSC activity; type: in vivo, Sprague-Dawley rats; conditions: high dose 60 mg/kg gavage, 15 days
# T1 construct: from tissue; host or cells: serum of Sprague-Dawley rats (AIA model)
# Experimental: Thirty 4-week-old male Sprague-Dawley rats (weighing 120–130 g) were randomly divided into 6 groups (5 rats per group) after 1 week of adaptive feeding, namely the normal group, model group, low-dose experimental group (15 mg/kg), medium-dose experimental group (30 mg/kg), high-dose experimental group (60 mg/kg), and positive control group (30 mg/kg). Starting from Day 0 of the experiment, rats in the administration groups and model group were injected intradermally with 0.1 mL of CFA into the left hind paw to induce AIA, while rats in the normal group were injected intradermally with an equal volume (0.1 mL) of normal saline as a control. After 13 consecutive days of feeding, rats treated with CFA successfully developed typical AIA symptoms. […] During the experiment, the body weight, mental state, activity ability, hair color changes, and paw appearance changes of the rats were observed and recorded daily. In addition, on Day 0 of the experiment (baseline period), the basic paw volume of all rats was accurately measured using a plethysmometer, which served as a reference standard for subsequent evaluation of inflammation severity. From Day 13 to Day 28 of the experiment, the paw volume of the rats was measured repeatedly every 3 days. The degree of paw swelling was quantified by calculating the change in paw volume relative to the baseline. […] The cytokine levels in serum were measured. […]
# [4] = target: Dipeptidyl Peptidase 9 (Homo sapiens, UniProt Q86TI2); assay: Recombinant dipeptidyl peptidases isolated enzyme assay, DPP9; type: biochemical; conditions: read-out: Dipeptidyl Peptidase 9 Enz (IC50: μM)
# From the text: Table 3 Inhibitory effects of marrubiin on dipeptidyl peptidase. | column: Dipeptidyl Peptidase 9 Enz (IC50: μM)
# [5] = target: T2, CTSC (Mus musculus, UniProt P97821); assay: CTSC activity in blood and bone marrow of mice; type: in vivo, C57BL/6 mice; conditions: 30 mg/kg daily gavage, 7 days
# T2 construct: from tissue; host or cells: mouse blood and bone marrow lysates
# Experimental: A total of 25 C57BL/6 mice (6–8 weeks old, weighing approximately 20 g, with equal numbers of males and females) were randomly divided into five groups. Mice in the compound-treated groups were orally administered the compound once daily at doses of 0.3, 3, and 30 mg/kg for 7 consecutive days. […] Mice in the normal group were given an equal volume of normal saline at the same time points. The body weight, death rate, and behavior were observed and recorded daily for one week. After 7 days, bone marrow and blood samples were collected from the mice and lysed using 8% Triton X-100 buffer. The lysates were stored at −20 °C until testing. The activity assays for CTSC and NSPs were performed as described above. The mice were anesthetized and the tissues were taken for H&E staining.
# T2 sequence (P97821 25-462): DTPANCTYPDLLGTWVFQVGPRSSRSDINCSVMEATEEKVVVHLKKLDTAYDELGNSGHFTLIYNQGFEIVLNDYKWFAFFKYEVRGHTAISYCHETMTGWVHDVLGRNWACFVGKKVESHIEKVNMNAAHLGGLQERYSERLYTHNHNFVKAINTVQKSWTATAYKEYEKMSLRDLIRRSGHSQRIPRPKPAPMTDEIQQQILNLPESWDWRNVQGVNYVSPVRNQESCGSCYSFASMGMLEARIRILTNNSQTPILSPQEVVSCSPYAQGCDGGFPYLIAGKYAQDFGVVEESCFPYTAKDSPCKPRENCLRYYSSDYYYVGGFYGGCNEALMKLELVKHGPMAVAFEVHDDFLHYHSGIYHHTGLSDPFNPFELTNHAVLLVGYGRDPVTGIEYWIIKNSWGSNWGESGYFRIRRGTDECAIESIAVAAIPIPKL
# Dipeptidyl Peptidase 9, sequence (Q86TI2 whole entry, species assumed): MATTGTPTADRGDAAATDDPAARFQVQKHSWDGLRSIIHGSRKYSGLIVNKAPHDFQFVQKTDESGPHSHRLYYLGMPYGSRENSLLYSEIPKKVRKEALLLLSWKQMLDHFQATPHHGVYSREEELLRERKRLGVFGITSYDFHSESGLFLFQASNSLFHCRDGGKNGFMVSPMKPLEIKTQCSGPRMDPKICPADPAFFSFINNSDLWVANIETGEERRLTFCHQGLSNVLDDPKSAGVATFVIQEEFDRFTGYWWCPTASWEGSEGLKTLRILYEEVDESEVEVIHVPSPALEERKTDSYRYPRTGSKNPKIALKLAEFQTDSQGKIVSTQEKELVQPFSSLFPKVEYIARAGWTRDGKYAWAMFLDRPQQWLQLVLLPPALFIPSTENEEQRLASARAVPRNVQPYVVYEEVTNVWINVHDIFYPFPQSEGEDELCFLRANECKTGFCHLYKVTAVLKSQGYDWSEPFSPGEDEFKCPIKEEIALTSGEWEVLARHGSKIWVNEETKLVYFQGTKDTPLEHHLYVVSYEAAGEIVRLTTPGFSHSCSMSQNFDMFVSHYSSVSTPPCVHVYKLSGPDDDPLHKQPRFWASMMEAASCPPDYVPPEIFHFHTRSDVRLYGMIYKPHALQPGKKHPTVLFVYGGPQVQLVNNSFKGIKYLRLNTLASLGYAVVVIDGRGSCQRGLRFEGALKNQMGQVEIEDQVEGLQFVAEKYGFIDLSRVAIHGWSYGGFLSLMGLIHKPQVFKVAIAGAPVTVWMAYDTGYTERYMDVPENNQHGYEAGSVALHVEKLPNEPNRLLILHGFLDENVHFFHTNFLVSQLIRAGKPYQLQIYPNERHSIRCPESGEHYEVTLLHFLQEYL
# T1 sequence (P80067 25-462): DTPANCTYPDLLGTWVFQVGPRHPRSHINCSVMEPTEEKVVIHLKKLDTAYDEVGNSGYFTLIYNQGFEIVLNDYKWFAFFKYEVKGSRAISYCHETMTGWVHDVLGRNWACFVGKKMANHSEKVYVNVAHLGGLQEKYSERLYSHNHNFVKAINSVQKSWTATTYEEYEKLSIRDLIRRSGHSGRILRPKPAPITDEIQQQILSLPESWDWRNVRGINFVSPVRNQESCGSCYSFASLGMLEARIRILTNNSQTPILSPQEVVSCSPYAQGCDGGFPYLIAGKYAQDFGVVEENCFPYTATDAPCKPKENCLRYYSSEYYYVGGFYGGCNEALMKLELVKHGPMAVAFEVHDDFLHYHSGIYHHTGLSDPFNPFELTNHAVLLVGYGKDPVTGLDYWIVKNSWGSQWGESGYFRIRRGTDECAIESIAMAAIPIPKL
structure (smiles),measurement,setting,value
"C[C@@H]1C[C@H]2OC(=O)[C@@]3(C)CCC[C@@](C)([C@@H]23)[C@@]1(O)CCc1ccoc1 [Marrubiin, marrubiin]","NE protein level, % of original level",[1]; 96 h,15.7%
same,"NE protein level, % of original level",[1]; 5 days,8.7%
same,IC50,[2],830 nM
same,"serum CTSC activity, % of control group",[3],approximately 58%
same,IC50,[4],> 10 µM
same,remaining activity rate of CTSC,[5]; blood,~25.5%
same,remaining activity rate of CTSC,[5]; bone marrow,approximately 15.5%
